Our source for the IC50 values is patent US20260022142A1, “MACROCYCLIC IMMUNOMODULATORS” (Bristol-Myers Squibb Company, priority 2022, published 2026).

Bridge positions count the residues as written; N and C are the ends. Square brackets hold non-standard residues; d marks the D form. Peptide text beside a SMILES is read from it. * marks the point of attachment. ξ: configuration not given here. Phe(4-COOH) = N[C@@H](Cc1ccc(C(=O)O)cc1)C(=O)O; Bip = N[C@@H](Cc1ccc(-c2ccccc2)cc1)C(=O)O; Phe(3-Me) = Cc1cccc(C[C@H](N)C(=O)O)c1; Val(3-OH) = CC(C)(O)[C@H](N)C(=O)O; 4Pal = N[C@@H](Cc1ccncc1)C(=O)O; Cha = N[C@@H](CC1CCCCC1)C(=O)O; Cit = NC(=O)NCCC[C@H](N)C(=O)O; Thr(3ξ) = CC(O)[C@H](N)C(=O)O; 12Ado = NCCCCCCCCCCCC(=O)O; Carboxymethyl = O=C(O)C*; Nle = CCCC[C@H](N)C(=O)O; Orn = NCCC[C@H](N)C(=O)O; Aun = NCCCCCCCCCCC(=O)O; Dab = NCC[C@H](N)C(=O)O; Dap = NC[C@H](N)C(=O)O; AEEA = NCCOCCOCC(=O)O

In general, IC50 refers to the point on the concentration scale where inhibition reaches its midpoint.

In the test the target is T1, PD-1/PD-L1 interaction (PE-labeled human PD-L1-Ig binding to Jurkat cell line over-expressing human PD-1) (Homo sapiens, UniProt Q15116).
T1 construct: expressed in transfected cells; host or cells: Jurkat
T1 sequence (Q15116 25-288): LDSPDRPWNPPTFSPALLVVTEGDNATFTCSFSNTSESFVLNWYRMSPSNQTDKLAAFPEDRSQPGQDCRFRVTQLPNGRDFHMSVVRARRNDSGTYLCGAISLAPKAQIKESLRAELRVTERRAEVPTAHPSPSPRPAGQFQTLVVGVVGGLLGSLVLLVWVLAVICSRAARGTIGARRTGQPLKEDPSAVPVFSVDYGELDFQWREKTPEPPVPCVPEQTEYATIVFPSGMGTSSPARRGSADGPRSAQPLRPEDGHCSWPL
Description: Jurkat-PD-1 Cell Binding High-Content Screening Assay (CBA). Type of test: cell-based. Particulars: Jurkat cell line over-expressing human PD-1; PE-labeled PD-L1-Ig 20 nM final; read-out: Jurkat hPD1-PDL1 IC50. Summed up:
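Binding of fluorescent PD-L1-Ig (20 nM final) to Jurkat-PD-1 cells was measured by automated imaging after 1 h, following a 2 h compound pre-treatment at 37° C.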
On to `CC(C)C[C@H]1NC(=O)[C@H](CCN)NC(=O)[C@H](C(C)C)NC(=O)[C@H](Cc2ccc(-c3ccccc3)cc2)NC(=O)[C@H](C(C)C)NC(=O)[C@H](Cc2c[nH]c3ccccc23)NC(=O)[C@H](CC(=O)O)NC(=O)[C@H](Cc2ccc(C(=O)O)cc2)NC(=O)[C@H](Cc2ccc(OCC(=O)O)cc2)NC(=O)CSC[C@@H](C(=O)N[C@@H](CCN)C(=O)NCCOCCOCC(=O)NCCCCCCCCCCC(=O)O)NC(=O)[C@H](CCCN)NC(=O)[C@H](C(C)C)NC(=O)[C@H](CC2CCCCC2)NC(=O)[C@H](CCN)NC1=O` [Compound 3243] ({CH2CO}-Y(Carboxymethyl)[Phe(4-COOH)]DWV[Bip]V[Dab][dL][Dab][Cha]V[Orn]C[Dab][AEEA][Aun]-OH; thioether N-14), for which the IC50 worked out at 10.9 nM. With `CCCC[C@@H]1NC(=O)CSC[C@@H](C(=O)N[C@@H](CCN)C(=O)NCCCCCCCCCCC(=O)O)NC(=O)[C@H](CO)NC(=O)[C@H](C(C)(C)O)NC(=O)[C@H](CC2CCCCC2)NC(=O)[C@H](CCN)NC(=O)[C@@H](CC(C)C)NC(=O)[C@H](CCCN)NC(=O)[C@H](Cc2ccc(OCC(=O)O)cc2)NC(=O)[C@H](Cc2ccc(-c3ccccc3)cc2)NC(=O)[C@H](Cc2ccc(OCC(=O)O)cc2)NC(=O)[C@H](Cc2cccc(C)c2)NC(=O)[C@H](CC(=O)O)NC(=O)[C@H](Cc2ccc(OCC(=O)O)cc2)NC1=O` [Compound 2210] ({CH2CO}-[Nle]Y(Carboxymethyl)D[Phe(3-Me)]Y(Carboxymethyl)[Bip]Y(Carboxymethyl)[Orn][dL][Dab][Cha][Val(3-OH)]SC[Dab][Aun]-OH; thioether N-14), the IC50 stood at 8.8 nM.

Consider `Cc1cccc(C[C@@H]2NC(=O)[C@H](CC(=O)O)NC(=O)[C@H](Cc3ccc(OCC(=O)O)cc3)NC(=O)[C@H](Cc3ccc(OCC(=O)O)cc3)NC(=O)CSC[C@@H](C(=O)N[C@@H](CCN)C(=O)NCCCCCCCCCCC(=O)O)NC(=O)[C@H]([C@@H](C)O)NC(=O)[C@H](C(C)C)NC(=O)[C@H](CC3CCCCC3)NC(=O)[C@H](CCN)NC(=O)[C@@H](CC(C)C)NC(=O)[C@H](CCCN)NC(=O)[C@H](CCCNC(N)=O)NC(=O)[C@H](Cc3ccc(-c4ccccc4)cc3)NC(=O)[C@H](C(C)C)NC2=O)c1` [Compound 2828] ({CH2CO}-Y(Carboxymethyl)Y(Carboxymethyl)D[Phe(3-Me)]V[Bip][Cit][Orn][dL][Dab][Cha]VTC[Dab][Aun]-OH; thioether N-14), for which the IC50 came out at 77.4 nM. In the case of `CC(C)C[C@H]1NC(=O)[C@H](CCCN)NC(=O)[C@H](C(C)C)NC(=O)[C@H](Cc2ccc(-c3ccccc3)cc2)NC(=O)[C@H](C(C)C)NC(=O)[C@H](Cc2c[nH]c3ccccc23)NC(=O)[C@H](CC(=O)O)NC(=O)[C@H](Cc2ccncc2)NC(=O)[C@H](Cc2ccc(OCC(=O)O)cc2)NC(=O)CSC[C@@H](C(=O)NCC(=O)NCCOCCOCC(=O)N[C@@H](CCCN)C(=O)NCCCCCCCCCCCC(=O)O)NC(=O)[C@H](CN)NC(=O)[C@H](C(C)C)NC(=O)[C@H](CC2CCCCC2)NC(=O)[C@H](CCN)NC1=O` [Compound 3170] ({CH2CO}-Y(Carboxymethyl)[4Pal]DWV[Bip]V[Orn][dL][Dab][Cha]V[Dap]CG[AEEA][Orn][12Ado]-OH; thioether N-14) it was 17.5 nM; in that of `CC(C)C[C@@H]1NC(=O)[C@H](Cc2c[nH]c3ccccc23)NC(=O)[C@H](CC(=O)O)NC(=O)[C@H](Cc2ccc(OCC(=O)O)cc2)NC(=O)[C@H](C(C)O)NC(=O)CSC[C@@H](C(=O)N[C@@H](CCN)C(=O)NCCCCCCCCCCC(=O)O)NC(=O)[C@H](Cc2cnc[nH]2)NC(=O)[C@H](C(C)O)NC(=O)[C@H](CC2CCCCC2)NC(=O)[C@H](CCN)NC(=O)[C@@H](CC(C)C)NC(=O)[C@H](CCCN)NC(=O)[C@H](C(C)C)NC(=O)[C@H](Cc2ccc(-c3ccccc3)cc2)NC1=O` (stereo partly drawn) [Compound 3690] ({CH2CO}-[Thr(3ξ)]Y(Carboxymethyl)DWL[Bip]V[Orn][dL][Dab][Cha][Thr(3ξ)]HC[Dab][Aun]-OH; thioether N-14), 38.8 nM. On to `CC(C)C[C@H]1NC(=O)[C@H](CCCN)NC(=O)[C@H](Cc2ccc(O)cc2)NC(=O)[C@H](Cc2ccc(-c3ccccc3)cc2)NC(=O)[C@H](Cc2ccc(O)cc2)NC(=O)[C@H](Cc2c[nH]c3ccccc23)NC(=O)[C@H](CC(=O)O)NC(=O)[C@H](Cc2ccc(OCC(=O)O)cc2)NC(=O)[C@H]([C@@H](C)O)NC(=O)CSC[C@@H](C(=O)N[C@@H](CCN)C(=O)NCCCCCCCCCCC(=O)O)NC(=O)[C@H]([C@@H](C)O)NC(=O)[C@H](C(C)C)NC(=O)[C@H](CC2CCCCC2)NC(=O)[C@H](CCN)NC1=O` [Compound 2728] ({CH2CO}-TY(Carboxymethyl)DWY[Bip]Y[Orn][dL][Dab][Cha]VTC[Dab][Aun]-OH; thioether N-14), for which the IC50 came to 17.4 nM. With `CC(C)C[C@H]1NC(=O)[C@H](CCCN)NC(=O)[C@H](C(C)C)NC(=O)[C@H](Cc2ccc(-c3ccccc3)cc2)NC(=O)[C@H](C(C)C)NC(=O)[C@H](Cc2ccc(O)cc2)NC(=O)[C@H](CC(=O)O)NC(=O)[C@H](Cc2ccc(OCC(=O)O)cc2)NC(=O)[C@H](CN)NC(=O)CSC[C@@H](C(=O)N[C@@H](CCN)C(=O)NCCCCCCCCCCC(=O)O)NC(=O)[C@H](CCCCN)NC(=O)[C@H](C(C)C)NC(=O)[C@H](CC2CCCCC2)NC(=O)[C@H](CCN)NC1=O` [Compound 2033] ({CH2CO}-[Dap]Y(Carboxymethyl)DYV[Bip]V[Orn][dL][Dab][Cha]VKC[Dab][Aun]-OH; thioether N-14), the IC50 came to 29.2 nM. In the case of `Cc1cccc(C[C@@H]2NC(=O)[C@H](CC(=O)O)NC(=O)[C@H](Cc3ccc(OCC(=O)O)cc3)NC(=O)[C@H](Cc3ccncc3)NC(=O)CSC[C@@H](C(=O)N[C@@H](CCN)C(=O)NCCOCCOCC(=O)NCCCCCCCCCCC(=O)O)NC(=O)[C@H](CO)NC(=O)[C@H](C(C)(C)O)NC(=O)[C@H](CC3CCCCC3)NC(=O)[C@H](CCN)NC(=O)[C@@H](CC(C)C)NC(=O)[C@H](CCC(N)=O)NC(=O)[C@H](Cc3ccc(C(=O)O)cc3)NC(=O)[C@H](Cc3ccc(-c4ccccc4)cc3)NC(=O)[C@H](Cc3ccc(C(=O)O)cc3)NC2=O)c1` [Compound 3747] ({CH2CO}-[4Pal]Y(Carboxymethyl)D[Phe(3-Me)][Phe(4-COOH)][Bip][Phe(4-COOH)]Q[dL][Dab][Cha][Val(3-OH)]SC[Dab][AEEA][Aun]-OH; thioether N-14) it was 12.1 nM; in that of `Cc1cccc(C[C@@H]2NC(=O)[C@H](CC(=O)O)NC(=O)[C@H](Cc3ccc(OCC(=O)O)cc3)NC(=O)[C@H](CN)NC(=O)CSC[C@@H](C(=O)NCCCCCCCCCCC(=O)O)NC(=O)[C@H](CCCN)NC(=O)[C@H](C(C)C)NC(=O)[C@H](CC3CCCCC3)NC(=O)[C@H](CCN)NC(=O)[C@@H](CC(C)C)NC(=O)[C@H](CCCN)NC(=O)[C@H](Cc3ccc(O)cc3)NC(=O)[C@H](Cc3ccc(-c4ccccc4)cc3)NC(=O)[C@H](Cc3ccc(O)cc3)NC2=O)c1` [Compound 2693] ({CH2CO}-[Dap]Y(Carboxymethyl)D[Phe(3-Me)]Y[Bip]Y[Orn][dL][Dab][Cha]V[Orn]C[Aun]-OH; thioether N-14), 13 nM.
